Experimental data: article PMC3368886, “ATPase Cycle and DNA Unwinding Kinetics of RecG Helicase” (PLoS ONE, 2012)

Experiments:
[1] = biological target: T1, RecG (Thermotoga maritima, UniProt Q9WY48); experiment: Steady-state ATPase rate measurements with phosphate biosensor MDCC-PBP; type: biochemical; details: for K m / k cat: 20°C, 10 nM RecG, 500 nM DNA junction (A40:B40)
T1 construct: made in house
T1 sequence (Q9WY48 1-780): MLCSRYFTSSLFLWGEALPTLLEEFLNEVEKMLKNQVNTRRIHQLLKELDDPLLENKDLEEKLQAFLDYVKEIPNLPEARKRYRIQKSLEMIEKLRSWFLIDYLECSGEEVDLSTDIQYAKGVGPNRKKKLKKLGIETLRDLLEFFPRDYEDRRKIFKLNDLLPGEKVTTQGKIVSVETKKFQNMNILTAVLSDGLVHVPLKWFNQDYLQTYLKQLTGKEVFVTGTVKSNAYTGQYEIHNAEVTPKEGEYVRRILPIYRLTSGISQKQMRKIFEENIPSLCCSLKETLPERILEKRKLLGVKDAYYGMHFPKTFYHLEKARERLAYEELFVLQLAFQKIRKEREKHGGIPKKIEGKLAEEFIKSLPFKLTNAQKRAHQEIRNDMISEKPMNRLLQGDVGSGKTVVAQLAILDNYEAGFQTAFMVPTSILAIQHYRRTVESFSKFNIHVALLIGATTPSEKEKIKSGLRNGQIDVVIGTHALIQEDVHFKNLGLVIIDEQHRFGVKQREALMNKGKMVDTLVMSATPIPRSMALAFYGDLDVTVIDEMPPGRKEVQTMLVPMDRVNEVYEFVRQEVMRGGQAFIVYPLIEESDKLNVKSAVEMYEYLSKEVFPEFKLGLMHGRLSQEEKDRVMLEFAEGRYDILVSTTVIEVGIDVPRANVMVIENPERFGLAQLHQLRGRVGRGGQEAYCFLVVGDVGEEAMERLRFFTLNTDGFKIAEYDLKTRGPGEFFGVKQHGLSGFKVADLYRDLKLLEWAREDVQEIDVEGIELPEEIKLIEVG
Excerpt: Steady-state measurements were made to gain an overall assessment of the reaction and the affinities of various nucleotides before investigating the individual steps in the ATPase cycle. A two-strand DNA junction, which contains two 20-bp regions of complementary and non-complementary sequences (A40:B40 Figure 1 and Table S1), was used in all these measurements. This forms a Y-shape structure and RecG translocates one single-stranded arm, but then remains bound to the end of the junction still hydrolyzing ATP [10].
All reactions with RecG and DNA were done at 20°C in a buffer containing 50 mM Tris⋅acetate (pH 8.0), 30 mM potassium acetate, 3 mM magnesium acetate and 1 mM DTT. ATPase measurements using MDCC-PBP were taken in the presence of a Pi mop, as described above. Steady-state ATPase measurements were taken in a solution (60 µl) at 20°C, containing 10 nM RecG, 500 nM DNA junction (A40∶B40, see Table S1) and 10 µM MDCC-PBP with varying nucleotide concentrations as substrate or inhibitor [23].

[2] = biological target: T1, RecG; experiment: Phosphate-water oxygen exchange during hydrolysis; type: biochemical; details: for k +3 /k −2: γ-18O3 nucleotide, 25°C
Excerpt: In order to get information about the reverse of cleavage step 2 (scheme in Figure 2A), phosphate-water oxygen exchange measurements were done using (γ-^18O3)mantATP. Intermediate exchange can occur between terminal oxygens of the nucleotide and water during hydrolysis, giving information about the value of k +3 /k −2, as previously described. In this case, (γ-^18O3)mantATP was used as substrate and partial hydrolysis occurred in the presence of RecG⋅DNA, as described in the materials and methods section. The Pi had very similar distribution of oxygen-18 as with (γ-^18O3)mantATP, consistent with essentially little reversal of the cleavage step (k +3 /k −2≥9). This is consistent with a rapid release of Pi.
For intermediate exchange during ATP hydrolysis, 0.5 µM RecG and 1 mM (γ-^18O3)ATP or (γ-^18O3)mantATP were incubated for 10 min (+1 µM DNA A40∶B40, Table S1) or 20 min (- DNA) at 25°C in a volume of 100 µl in the buffer described below. Pi was analyzed for distribution of different ^18O-labeled species on a mass spectrometer as described previously, [37] except that during purification, the ^18O-labeled Pi was detected by MDCC-PBP, rather than radioactive tracers.
Supplementary file pone.0038270.s005.pdf: Table S2 Oxygen exchange during ATP or mantATP hydrolysis by RecG: distributions of oxygen-18 in the Pi product. Experiments were performed as described in Materials and Methods. The data were corrected for isotopic enrichment of the starting nucleotide, 93% for (γ-^18O3)mantATP and 98% for (γ-^18O3) ATP. […] Each distribution is the average of three mass spectral assays. Thus the distributions are for the product Pi as though the starting enrichment was 100%. In all cases there was very little oxygen exchange as shown by the large peak of (^18O3)Pi, in which all three γ-oxygens of ATP are retained. The distributions were then used to compute the ratio of rate constants for Pi release (k +3) and on-enzyme ATP resynthesis (k −2) as in Figure 2 [14], [37].

[3] = biological target: T1, RecG; set-up: method as in PMID 16363810; details: much lower concentration of DNA; cited from earlier work
[4] = biological target: T2, RecG⋅DNA(A40:B40) (Thermotoga maritima, UniProt Q9WY48); experiment: Quench-flow measurement of cleavage step (mantADP formation, HPLC); type: biochemical
T2 construct: made in house
T2 sequence (Q9WY48 1-780): T1 sequence (Q9WY48 1-780)
Description: Single turnover measurements of the cleavage step and Pi release were performed with excess RecG⋅DNA over mantATP using conditions of the mantATP fluorescence measurements, described above. Quench-flow measurements allowed the formation of nucleoside diphosphate to be monitored with high time resolution. MantATP was rapidly mixed with excess RecG⋅DNA, and the reaction mix was quenched in acid at particular time points. The mix was then analyzed by HPLC to quantify mantATP and mantADP, giving the time course of mantADP formation (Figure 4A). This time course had similar kinetics to the slow phase of the mant fluorescence trace (0.2 s^−1), supporting the idea that this phase is mantADP formation.
These were carried out using a HiTech RQF-63 apparatus using different length loops and flow rates to age reactions before quenching using 10% perchloric acid. Samples were analyzed for the ratio of mantATP to mantADP by HPLC, as described.

SMILES	K m [1]	k cat [1]	(18O1)Pi in product Pi ([2]; DNA present)	(18O2)Pi in product Pi ([2]; DNA present)	(18O3)Pi in product Pi ([2]; DNA present)	k +3 /k −2 ([2]; DNA present (A40∶B40))	(18O1)Pi in product Pi ([2]; no DNA)	(18O2)Pi in product Pi ([2]; no DNA)	(18O3)Pi in product Pi ([2]; no DNA)	k +3 /k −2 ([2]; no DNA)	K m previously reported [3]	k cat previously reported [3]	rate of mantADP formation (quench-flow time course) ([4]; 0.5 µM mantATP, 2.5 µM RecG, 5 µM DNA)	hydrolytic cleavage slower than ATP ([4]; mantATP vs ATP)	lower ATPase activity than ATP ([1]; mantATP vs ATP)
Nc1ncnc2c1ncn2[C@@H]1O[C@H](COP(=O)(O)OP(=O)(O)OP(=O)(O)O)[C@@H](O)[C@H]1O [ATP]	9 (±2) µM	8.3 (±1.7) s^−1	2.8%	2.3%	94.9%	18	6.1%	4.0%	89.9%	9.0	42 µM	5.2 s⁻¹			
CNc1ccccc1C(=O)O[C@H]1[C@@H](O)[C@H](n2cnc3c(N)ncnc32)O[C@@H]1COP(=O)(O)OP(=O)(O)OP(=O)(O)O [mantATP, 2′(3′)-O-(N-methylanthraniloyl)ATP]	1.9 (±0.6) µM	0.3 (±0.1) s^−1	0.4%	7.5%	92.1%	8.7	0.4%	7.0%	92.6%	9.5			0.2 s⁻¹	~10 fold	30 fold
